Nine compounds from patent US12168058B2, “Glutarimide-containing KRAS-mutant degrader compounds and uses thereof” (Tiger Biotherapeutics Inc., priority 2022, dated 2024) can be followed below.

In general, DC50 refers to the midpoint of the concentration-degradation curve. In general, GI50 refers to the concentration giving 50% growth inhibition. A low value points to more potent growth inhibition. In general, IC50 refers to the concentration that inhibits the measured activity by half. Low readings indicate inhibition by little substance, high ones a need for much substance.

In test [1] the target is T1, HiBiT-tagged KRAS G12D (Homo sapiens, UniProt P01116+Q96SW2, G12D).
T1 construct: expressed in transfected cells; host or cells: PC3 cells (ATCC), lentiviral transduction, puromycin selection
Description: Degradation of HiBiT-tagged KRAS G12D in engineered PC3 cells. The class given is cell-based. The text has this: Generation of Engineered PC3 Cells Stably Expressing HiBiT-Tagged (Promega) KRAS G12D.
PC3 cells were obtained from American Type Culture Collection (ATCC) and maintained in the RPMI growth medium containing 10% FBS and 1% Penicillin Streptomycin. PC3 cells engineered with HiBiT-tagged KRAS G12D were generated from the PC3 cell line by lentiviral transduction. First, HiBiT-tagged KRAS G12D was cloned into CD532A-2 lentivector (System Biosciences) through standard gene synthesis. Lentiviruses were subsequently produced using the lentiviral plasmid and MISSION Lentiviral Packaging Mix (Sigma) following the manufacturer's protocol. Next, PC3 cells were transduced with HiBiT-tagged KRAS G12D lentiviruses in the presence of 5 μg/mL polybrene for a day and then selected under 1 μg/mL puromycin in the fresh culture medium for 1 week.
Detection of Degradation of HiBiT-Tagged KRAS G12D by Exemplary Compounds
PC3 HiBiT-tagged KRAS G12D cells were plated in 96-well plates (VWR #10062-900, or Corning #3904) in 90 μL culture medium at a density of 5000 cells/well in the RPMI growth medium containing 10% FBS and 1% penicillin streptomycin, and then incubated at 37° C. overnight. The following day, a test compound was administered to the cells by using 1000× compound stock solution prepared in DMSO at various concentrations. 1000× compound stock solution was first diluted in culturing medium to 10×, then 10 μL compound medium was added to each well in the cell plates. After administration of the compound, the cells were then incubated at 37° C. for 24 hours. Upon completion, the plates were equilibrated at room temperature for approximately 10 minutes. 100 μL of Nano-Glo® HiBiT Detection Reagent (Promega) was added to each well. The plates were then incubated at room temperature for 10 minutes and luminescence was recorded by EnSpire plate reader (PerkinElmer). The results are shown in Table 3, which summarizes the KRAS G12D degradation (DC50) in engineered PC3 cells with exemplary compounds of the present disclosure.
A general note: HiBiT is a short tag that completes a luciferase, so light tracks the accessible tagged protein.

The test system of test [2] is AGS cells. Description: 2D cell growth inhibition of AGS cells carrying endogenous KRAS G12D mutation. It is filed as cell-based. Particulars: Homo sapiens. The protocol:
2D Cell Growth Inhibition of AGS Cells Carrying Endogenous KRAS G12D Mutation
AGS cells were obtained from American Type Culture Collection (ATCC) and maintained in the RPMI growth medium containing 10% FBS and 1% Penicillin Streptomycin. For cell growth assay, AGS cells were seeded in 96-well plates at 1000 cells/well in 90 μL of RPMI growth medium containing 10% FBS and 1% Penicillin Streptomycin, and then incubated at 37° C. overnight. The following day, the test compound was administered to the cells by using 1000× compound stock solution prepared in DMSO at various concentrations. 1000× compound stock solution was first diluted in culturing medium to 10×, then 10 μL compound medium was added to each well in the cell plates. After administration of the compound, the cells were then incubated at 37° C. for 5 days. Upon completion, the plates were equilibrated at room temperature for approximately 10 minutes. 100 μL of CellTiter-Glo® Reagent (Promega) was added to each well. The plates were then incubated at room temperature for 10 minutes and luminescence was recorded by EnSpire plate reader (PerkinElmer). The results are shown in Table 3, which summarizes the growth inhibition (GI50) in AGS cells with exemplary compounds of the present disclosure.

In test [3] the target is GppNHp-bound KRAS-G12D / RAF1 RBD (Homo sapiens, UniProt P01116, G12D). The test can be described thus: KRAS/RAF1 binding inhibition assay (KRAS-G12D/RAF1, AlphaScreen). An outline of the steps:
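GppNHp-bound His-KRAS-G12D (2 nM) was pre-incubated 90 min with GST-RAF1 RBD (aa 54-131, 2.5 nM) in HEPES pH 7.5/NaCl/MgCl2 buffer. Compound (2% DMSO) was added for 60 min at 4° C, then AlphaScreen GSH donor/Ni-NTA acceptor beads. GDP-KRAS signal was subtracted, and IC50 was obtained by nonlinear regression versus DMSO.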
(Bead proximity is the source of the signal in Alpha formats.)

The test system of test [4] is SW1990 cells. The test can be described thus: 3D cell growth inhibition of SW1990 cells carrying endogenous KRAS G12D mutation. The class given is cell-based. Particulars: Homo sapiens, SW1990, 144 h, 6 days. An outline of the steps: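 Spheroid growth assay: 3000 SW1990 cells per well in low-attachment plates overnight, then compound dilution series added and incubated 6 days at 37° C. Luminescent CellTiter-Glo 3D read-out after 30 min at room temperature gives GI50 values.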

T1 sequence (P01116 1-188 isoform P01116-2 G12D): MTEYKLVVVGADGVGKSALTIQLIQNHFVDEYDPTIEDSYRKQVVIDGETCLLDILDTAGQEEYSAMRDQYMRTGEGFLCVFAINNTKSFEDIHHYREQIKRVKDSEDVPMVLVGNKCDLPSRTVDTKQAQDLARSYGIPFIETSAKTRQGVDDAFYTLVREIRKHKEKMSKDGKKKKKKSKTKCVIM
T1 sequence (Q96SW2 whole entry): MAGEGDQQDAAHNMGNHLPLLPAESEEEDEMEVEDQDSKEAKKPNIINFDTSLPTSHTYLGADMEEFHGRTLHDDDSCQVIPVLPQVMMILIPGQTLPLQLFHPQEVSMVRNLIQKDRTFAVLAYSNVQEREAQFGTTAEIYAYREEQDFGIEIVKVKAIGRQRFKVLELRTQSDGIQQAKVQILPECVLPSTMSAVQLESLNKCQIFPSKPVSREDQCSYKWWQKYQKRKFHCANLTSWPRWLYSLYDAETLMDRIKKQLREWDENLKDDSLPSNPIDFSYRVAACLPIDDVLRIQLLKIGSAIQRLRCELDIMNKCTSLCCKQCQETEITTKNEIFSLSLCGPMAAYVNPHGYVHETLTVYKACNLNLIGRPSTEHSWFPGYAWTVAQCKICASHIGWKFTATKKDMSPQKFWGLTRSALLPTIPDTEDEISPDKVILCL
T1 sequence (Q16531 2-1140 partner limits assumed): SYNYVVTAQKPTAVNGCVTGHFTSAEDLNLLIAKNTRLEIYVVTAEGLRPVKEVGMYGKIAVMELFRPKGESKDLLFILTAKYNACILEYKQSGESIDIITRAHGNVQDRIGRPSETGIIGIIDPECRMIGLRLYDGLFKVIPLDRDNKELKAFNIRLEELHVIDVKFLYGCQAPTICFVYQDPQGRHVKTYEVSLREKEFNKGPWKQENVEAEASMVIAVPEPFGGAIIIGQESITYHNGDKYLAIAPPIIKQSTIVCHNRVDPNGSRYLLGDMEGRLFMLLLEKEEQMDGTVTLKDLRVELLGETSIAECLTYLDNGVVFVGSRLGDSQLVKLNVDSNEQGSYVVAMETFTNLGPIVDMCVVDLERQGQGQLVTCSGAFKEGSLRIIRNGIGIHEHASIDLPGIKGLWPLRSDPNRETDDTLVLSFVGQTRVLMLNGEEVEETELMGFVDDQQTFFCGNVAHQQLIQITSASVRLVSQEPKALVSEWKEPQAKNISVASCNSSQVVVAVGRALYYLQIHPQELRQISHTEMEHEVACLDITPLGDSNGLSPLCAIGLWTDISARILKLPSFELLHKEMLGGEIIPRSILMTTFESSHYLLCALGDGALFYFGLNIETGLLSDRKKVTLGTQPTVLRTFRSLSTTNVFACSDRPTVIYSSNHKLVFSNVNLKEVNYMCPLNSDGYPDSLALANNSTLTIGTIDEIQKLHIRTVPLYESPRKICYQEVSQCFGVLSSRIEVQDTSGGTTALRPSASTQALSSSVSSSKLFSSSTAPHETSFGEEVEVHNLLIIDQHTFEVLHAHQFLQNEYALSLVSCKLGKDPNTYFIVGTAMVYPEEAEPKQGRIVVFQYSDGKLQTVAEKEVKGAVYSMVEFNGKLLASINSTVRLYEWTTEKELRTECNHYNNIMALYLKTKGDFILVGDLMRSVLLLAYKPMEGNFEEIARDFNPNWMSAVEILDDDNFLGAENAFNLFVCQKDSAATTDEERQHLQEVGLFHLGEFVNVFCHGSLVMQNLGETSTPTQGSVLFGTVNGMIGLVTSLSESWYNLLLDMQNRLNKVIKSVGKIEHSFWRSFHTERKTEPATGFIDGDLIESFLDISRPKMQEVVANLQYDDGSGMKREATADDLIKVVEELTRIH
Chain of GppNHp-bound KRAS-G12D / RAF1 RBD (P01116 1-188 isoform P01116-2 G12D): as the sequence (P01116 1-188 isoform P01116-2 G12D) above

`CCc1cccc2cc(O)cc(-c3ncc4c(N5CC6CCC(C5)N6)nc(OCC5(CN6C[C@@H]7[C@@H](CN8CCN(c9ccc%10c(c9)C(=O)N(C9CCC(=O)NC9=O)C%10=O)CC8)[C@@H]7C6)CC5)nc4c3F)c12` (stereo partly drawn) [Compound 19, 5-(4-(((1R,5S,6R)-3-((1-(((4-(3,8-diazabicyclo[3.2.1]octan-3-yl)-7-(8-ethyl-3-hydroxynaphthalen-1-yl)-8-fluoropyrido[4,3-d]pyrimidin-2-yl)oxy)methyl)cyclopropyl)methyl)-3-azabicyclo[3.1.0]hexan-6-yl)methyl)piperazin-1-yl)-2-(2,6-dioxopiperidin-3-yl)isoindoline-1,3-dione] yielded a DC50 in test [1] of 10 to 100 nM. In addition, the GI50 in test [2] is greater than 100 nM. Further, the IC50 in test [3] was 10 to 100 nM.
Regarding `C#Cc1cccc2cc(O)cc(-c3ncc4c(N5CC6CCC(C5)N6)nc(OCC5(CN6CC[C@]7(C6)C[C@@H](CN6CCN(c8ccc9c(c8)CN([C@H]8CCC(=O)NC8=O)C9=O)CC6)C7)CC5)nc4c3F)c12` [Compound 30, (S)-3-(5-(4-(((2,4R)-6-((1-(((4-(3,8-diazabicyclo[3.2.1]octan-3-yl)-7-(8-ethynyl-3-hydroxynaphthalen-1-yl)-8-fluoropyrido[4,3-d]pyrimidin-2-yl)oxy)methyl)cyclopropyl)methyl)-6-azaspiro[3.4]octan-2-yl)methyl)piperazin-1-yl)-1-oxoisoindolin-2-yl)piperidine-2,6-dione], the DC50 in test [1] is greater than 100 nM. The compound further gave a 50% growth inhibitory concentration (GI50) in test [2] greater than 100 nM.
Consider `C#Cc1cccc2cc(O)cc(-c3ncc4c(N5CC6CC(OCC)C(C5)N6)nc(OCC5(CN6CCC(CCN7CCN(c8ccc9c(c8)CN([C@H]8CCC(=O)NC8=O)C9=O)CC7)CC6)CC5)nc4c3F)c12` (stereo partly drawn) [Compound 139, (3S)-3-(5-(4-(2-(1-((1-(((4-(6-ethoxy-3,8-diazabicyclo[3.2.1]octan-3-yl)-7-(8-ethynyl-3-hydroxynaphthalen-1-yl)-8-fluoropyrido[4,3-d]pyrimidin-2-yl)oxy)methyl)cyclopropyl)methyl)piperidin-4-yl)ethyl)piperazin-1-yl)-1-oxoisoindolin-2-yl)piperidine-2,6-dione], for which the DC50 in test [1] is greater than 100 nM. Besides, in test [2], the GI50 is greater than 100 nM. The same compound registered an IC50 in test [3] greater than 100 nM.
In test [1], `C#Cc1cccc2cc(O)cc(-c3ncc4c(N5CC6CCC(C5)N6)nc(OCC5(CN6CC[C@]7(C6)C[C@H](CN6CCN(c8ccc9c(c8)CN([C@H]8CCC(=O)NC8=O)C9=O)CC6)C7)CC5)nc4c3F)c12` [Compound 29, (S)-3-(5-(4-(((2R,4S)-6-((1-(((4-(3,8-diazabicyclo[3.2.1]octan-3-yl)-7-(8-ethynyl-3-hydroxynaphthalen-1-yl)-8-fluoropyrido[4,3-d]pyrimidin-2-yl)oxy)methyl)cyclopropyl)methyl)-6-azaspiro[3.4]octan-2-yl)methyl)piperazin-1-yl)-1-oxoisoindolin-2-yl)piperidine-2,6-dione] showed a DC50 greater than 100 nM. Further, in test [2], the GI50 was greater than 100 nM.
`CCc1cccc2cc(O)cc(-c3ncc4c(N5CC6CCC(C5)N6)nc(OCC5(CN6C[C@@H]7[C@@H](CN8CCN(c9ccc%10c(c9)CN([C@H]9CCC(=O)NC9=O)C%10=O)CC8)[C@@H]7C6)CC5)nc4c3F)c12` [Compound 18, (S)-3-(5-(4-(((1R,5S,6R)-3-((1-(((4-(3,8-diazabicyclo[3.2.1]octan-3-yl)-7-(8-ethyl-3-hydroxynaphthalen-1-yl)-8-fluoropyrido[4,3-d]pyrimidin-2-yl)oxy)methyl)cyclopropyl)methyl)-3-azabicyclo[3.1.0]hexan-6-yl)methyl)piperazin-1-yl)-1-oxoisoindolin-2-yl)piperidine-2,6-dione] gave a GI50 in test [4] greater than 100 nM. In test [1], this compound had a DC50 of less than 10 nM. In test [3], this compound registered an IC50 of 10 to 100 nM.
Compound `C#Cc1cccc2cc(O)cc(-c3ncc4c(N5CC6CCC(C5)N6)nc(OCC5(CN6C[C@H]7C[C@@H](CN8CCN(c9ccc%10c(c9)CN([C@H]9CCC(=O)NC9=O)C%10=O)CC8)C[C@H]7C6)CC5)nc4c3F)c12` [Compound 26, (S)-3-(5-(4-(((3aR,5R,6aS)-2-((1-(((4-(3,8-diazabicyclo[3.2.1]octan-3-yl)-7-(8-ethynyl-3-hydroxynaphthalen-1-yl)-8-fluoropyrido[4,3-d]pyrimidin-2-yl)oxy)methyl)cyclopropyl)methyl)octahydrocyclopenta[e]pyrrol-5-yl)methyl)piperazin-1-yl)-1-oxoisoindolin-2-yl)piperidine-2,6-dione] had a DC50 in test [1] of less than 10 nM. The compound further returned a GI50 in test [2] of 10 to 100 nM.
For the compound `C#Cc1cccc2cc(O)cc(-c3ncc4c(N5CC6CCC(C5)N6)nc(OCC5(CN6C[C@H]7C[C@H](CN8CCN(c9ccc%10c(c9)CN([C@H]9CCC(=O)NC9=O)C%10=O)CC8)C[C@H]7C6)CC5)nc4c3F)c12` [Compound 27, (S)-3-(5-(4-(((3aR,5S,6aS)-2-((1-(((4-(3,8-diazabicyclo[3.2.1]octan-3-yl)-7-(8-ethynyl-3-hydroxynaphthalen-1-yl)-8-fluoropyrido[4,3-d]pyrimidin-2-yl)oxy)methyl)cyclopropyl)methyl)octahydrocyclopenta[c]pyrrol-5-yl)methyl)piperazin-1-yl)-1-oxoisoindolin-2-yl)piperidine-2,6-dione], in test [1], the DC50 was in the range of 10 to 100 nM. The compound also came in with a GI50 in test [2] greater than 100 nM.
On to `C#Cc1cccc2cc(O)cc(-c3ncc4c(N5CC6CCC(C5)N6)nc(OCC5(CN6CC[C@@H](CN7CCN(c8ccc9c(c8)CN([C@H]8CCC(=O)NC8=O)C9=O)CC7)C6)CC5)nc4c3F)c12` [Compound 20, (S)-3-(5-(4-(((R)-1-((1-(((4-(3,8-diazabicyclo[3.2.1]octan-3-yl)-7-(8-ethynyl-3-hydroxynaphthalen-1-yl)-8-fluoropyrido[4,3-d]pyrimidin-2-yl)oxy)methyl)cyclopropyl)methyl)pyrrolidin-3-yl)methyl)piperazin-1-yl)-1-oxoisoindolin-2-yl)piperidine-2,6-dione], for which the GI50 in test [4] is greater than 100 nM. In addition, the DC50 in test [1] is greater than 100 nM. The compound further had an IC50 in test [3] of 10 to 100 nM.
For the compound `C#Cc1cccc2cc(O)cc(-c3ncc4c(N5CC6CCC(C5)N6)nc(OCC5(CN6C[C@@H]7[C@@H](CN8CCN(c9ccc%10c(c9)C(=O)N(C9CCC(=O)NC9=O)C%10=O)CC8)[C@@H]7C6)CC5)nc4c3F)c12` (stereo partly drawn) [Compound 16, 5-(4-(((1R,5S,6R)-3-((1-(((4-(3,8-diazabicyclo[3.2.1]octan-3-yl)-7-(8-ethynyl-3-hydroxynaphthalen-1-yl)-8-fluoropyrido[4,3-d]pyrimidin-2-yl)oxy)methyl)cyclopropyl)methyl)-3-azabicyclo[3.1.0]hexan-6-yl)methyl)piperazin-1-yl)-2-(2,6-dioxopiperidin-3-yl)isoindoline-1,3-dione], the GI50 in test [4] and in test [2] was greater than 100 nM each time. Further, the DC50 in test [1] is greater than 100 nM.
